The results in this text go back to US20230088286A1, “USP7 INHIBITOR FOR USE IN THE TREATMENT OF CANCER” (ALMAC DISCOVERY LIMITED, priority 2020, published 2023).

pEC50, pIC50: −log10 of the molar value. Entries after “also recorded” stand apart in the source; their conditions may differ. Like-named read-outs stand apart in the source and are kept apart here. Where only a bound is given, the exact number is not on record here.

A short description of data set [1]: Hep CLhep (r). The format is in vitro ADME, rat.
A short description of data set [2]: LM CLhep (m). The format is in vitro ADME, mouse.
The target in data set [3] is CYP3A4 (Homo sapiens, UniProt P08684). Kind of data set: TDI shift CYP3A4. The following applies: value in brackets; shift N/A. The format is in vitro ADME.
Data set [4] can be described thus: LM CLhep (r). The format is in vitro ADME, rat.
A short description of data set [5]: PPB Fu (h). The format is in vitro ADME. As to conditions: human, plasma.
Data set [6] deals with RS4; 11. Briefly: RS4;11 cell EC50. The format is cell-based. As to conditions: Homo sapiens.
For data set [7], the system named is CT-26 tumours. Briefly: Histology and immunofluorescence of CT-26 tumours (ADC-159). The format is in vivo, mouse. How it is done: FIG. 36: ADC-159 prevents tumour vessel maturation in CT-26 syngeneic mouse model in vivo. FFPE tumour blocks were prepared after 15 days of treatment with vehicle and ADC-159 and co-stained with endothelial cell marker CD31 (green), pericyte marker NG2 (red) and DAPI (blue; n=5 blocks/group). Mature blood vessels have fine branching positive for CD31 and NG2 staining (A, left image) which is lost when treated with USP7 inhibitor (B, right image).
FIG. 37: ADC-159 decreases tumour area and increases necrosis area in the CT-26 syngeneic mouse model in vivo. […] FFPE tumour blocks were prepared followed by quantification of tumour and necrosis using HALO software.
After rinsing with running water, the specimens were transferred to the Vacuum Tissue Processor (HistoCore PEARL, Leica) for dehydration, then embedded into FFPE blocks using Tissue embedding center (EG1150, Leica). FFPE blocks were sectioned with a manual rotary microtome (RM2235, Leica), 4 μm thickness/section. Sections were processed for staining with hematoxylin and eosin (H&E) or for immunofluorescent (IF) analysis. For IF sections were stained with primary antibodies specific for CD31 (abcam), NG2 (sigma) and cell nuclei were counterstained with DAPI. All stained sections were scanned with Pannoramic Digital Slide Scanners for 40× magnification (3[…], Pannoram ic SCAN). All the images were analyzed with HALOTM platform were tumour area and large areas of necrosis were quantified. Non-tumour tissue on the periphery was excluded.

Data set [8] in a line: PPB Fu (r). The format is in vitro ADME. As to conditions: rat, plasma.
The nature of data set [9]: TSol. The format is physicochemical.
Data set [10] deals with MDCK. Kind of data set: MDCK permeability. The format is in vitro ADME.
A short description of data set [11]: MDCK permeability. The format is in vitro ADME. The following applies: dog, MDCK; read-out: MDCK Papp ratio.
The nature of data set [12]: Oral availability. The following applies: compared to AD-04. The format is in vivo.
Data set [13] addresses USP7 (Homo sapiens, UniProt Q93009). Briefly: USP7 FP. The format is biochemical.
Data set [14] concerns CT-26 tumours. Briefly: Flow cytometry of tumour infiltrating immune cells, CT-26 model (ADC-159). The format is in vivo, mouse. As to conditions: ADC-159 alone or in combination with ICIs, 13 days. How it is done: FIG. 40: USP7 inhibitor ADC-159 modulates the tumour microenvironment immune compartment in vivo.
Harvested tumours were collected in HBSS medium, minced and incubated 30 minutes at 37° C. in non-enzymatic cell dissociation buffer followed by mechanical dissociation through a 70 μm filter. Viable cells were then enriched using Ficoll® gradient. All cells suspensions were count and one million viable cells were seeded in 96-well plates in 100 μL of Staining Buffer for acquisition. Non-specific binding was performed using mouse FcR blocking reagent. Viobility 405/452 Fixable Dye (Miltenyi Biotec) was used to assess cell viability. The antibodies directed against the CD45, CD335 (Nkp46), FoxP3 CD8a, CD4, CD3e, CD19, F4/80, CD11c, CD11 b (Miltenyi Biotec), Ly6G and Ly6C (Biolegend) were added. The stained cells were analyzed with a Fortessa X20 cytometer (BD Biosciences).
In general terms: In flow cytometry, cells or beads pass a laser one at a time.

A short description of data set [15]: LM CLhep (h). The format is in vitro ADME, human.
The target in data set [16] is 2D6 (Homo sapiens, UniProt P10635). Briefly: Cyp inhibition 2D6. The format is in vitro ADME. As to conditions: read-out: Cyps: 2D6.
The subject of data set [17] is Ub-MDM2. Briefly: Ub-MDM2 MSD (HCT116). The format is cell-based. The following applies: Homo sapiens, HCT-116.
Data set [18] concerns the target 3A4 (Homo sapiens, UniProt P08684). Kind of data set: Cyp inhibition 3A4. The format is in vitro ADME. The following applies: read-out: Cyps: 3A4.
For data set [19], the system named is CT-26 cells in BALB/C mice. Briefly: CT-26 syngeneic tumour model (AD-04 study). On the procedure:
FIG. 30: Effect of USP7 on the tumour microenvironment in vivo.
For subcutaneous tumour implantation, CT26 cells were injected subcutaneously (1×10^6cells in 200 μL of RPMI) in the right flank of 8- to 10-week-old BALB/c female mice. […] Tumour volume (in mm^3) was measured twice a week with a digital caliper and calculated by the following formula: volume=(width)^2×length/2. Body weight was measured twice a week. […]

Data set [20] relates to cancer cells, primary and immortalized fibroblasts. Briefly: Cell proliferation assay (CellTiter-Glo viability). The format is cell-based, human. How it is done:
The functional impact of USP7-mediated decrease in VEGF secretion is not on fibroblast or cancer cell proliferation. […] After 72 hours cell viability was measured by Cell-Titer-Glo. The results were normalized to the control non-treated group (mean±SD, n=3).
(In general: Cellular ATP, detected with luciferase, serves as a proxy for viable cell number.)

Data set [21] relates to tumour VEGFA mRNA. Briefly: RNA-seq of syngeneic CT-26 tumour samples. The format is in vivo, mouse. How it is done: Finally, mode of action of AD-04 in vivo was analysed by RNA-seq. […] Moreover, individual genes within HIF1A pathway were differentially modulated upon USP7 inhibition.

Sequence of USP7 (Q93009 whole entry): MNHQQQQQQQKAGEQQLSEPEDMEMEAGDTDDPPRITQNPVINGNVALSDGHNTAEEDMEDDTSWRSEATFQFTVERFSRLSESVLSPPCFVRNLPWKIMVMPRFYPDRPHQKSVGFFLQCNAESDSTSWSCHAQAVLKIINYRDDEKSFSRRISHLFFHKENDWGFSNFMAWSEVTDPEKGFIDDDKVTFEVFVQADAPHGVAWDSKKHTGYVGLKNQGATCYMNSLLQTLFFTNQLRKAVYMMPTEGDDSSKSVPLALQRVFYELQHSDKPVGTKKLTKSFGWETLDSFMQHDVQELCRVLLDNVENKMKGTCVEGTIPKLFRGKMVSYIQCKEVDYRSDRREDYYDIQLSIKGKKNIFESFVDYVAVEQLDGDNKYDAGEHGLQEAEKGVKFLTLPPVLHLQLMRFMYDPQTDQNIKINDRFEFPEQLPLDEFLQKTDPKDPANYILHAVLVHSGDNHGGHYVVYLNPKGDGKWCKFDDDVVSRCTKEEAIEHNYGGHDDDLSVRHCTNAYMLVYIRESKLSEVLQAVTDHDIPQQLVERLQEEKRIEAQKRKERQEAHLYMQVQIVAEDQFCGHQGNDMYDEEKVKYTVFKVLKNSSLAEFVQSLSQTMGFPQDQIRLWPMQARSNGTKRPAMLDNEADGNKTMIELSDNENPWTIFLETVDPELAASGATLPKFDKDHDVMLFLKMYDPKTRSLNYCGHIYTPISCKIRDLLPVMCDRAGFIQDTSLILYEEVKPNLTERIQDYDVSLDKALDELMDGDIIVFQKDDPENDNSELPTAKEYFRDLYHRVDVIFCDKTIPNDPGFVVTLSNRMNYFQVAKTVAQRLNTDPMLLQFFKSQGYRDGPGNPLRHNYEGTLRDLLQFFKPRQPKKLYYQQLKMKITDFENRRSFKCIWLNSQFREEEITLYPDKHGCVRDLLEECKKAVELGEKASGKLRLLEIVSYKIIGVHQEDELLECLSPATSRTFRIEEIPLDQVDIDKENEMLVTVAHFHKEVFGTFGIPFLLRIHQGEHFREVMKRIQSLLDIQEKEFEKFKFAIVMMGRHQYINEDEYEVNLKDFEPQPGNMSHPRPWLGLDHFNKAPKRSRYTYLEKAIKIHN
Sequence of 2D6 (P10635 whole entry): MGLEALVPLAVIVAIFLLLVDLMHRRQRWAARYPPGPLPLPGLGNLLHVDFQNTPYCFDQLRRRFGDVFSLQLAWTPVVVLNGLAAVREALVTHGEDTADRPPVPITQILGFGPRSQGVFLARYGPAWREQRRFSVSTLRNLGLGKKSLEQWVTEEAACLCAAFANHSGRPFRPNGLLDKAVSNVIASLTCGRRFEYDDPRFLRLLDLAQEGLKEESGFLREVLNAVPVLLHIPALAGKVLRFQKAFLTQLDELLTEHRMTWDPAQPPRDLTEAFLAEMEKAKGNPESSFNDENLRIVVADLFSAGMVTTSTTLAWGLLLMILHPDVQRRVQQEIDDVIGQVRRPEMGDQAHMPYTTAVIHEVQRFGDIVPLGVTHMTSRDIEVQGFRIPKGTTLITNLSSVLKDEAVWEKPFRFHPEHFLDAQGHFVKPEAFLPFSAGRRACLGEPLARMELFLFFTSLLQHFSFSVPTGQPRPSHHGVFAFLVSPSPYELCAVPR
Sequence of CYP3A4 (P08684 whole entry): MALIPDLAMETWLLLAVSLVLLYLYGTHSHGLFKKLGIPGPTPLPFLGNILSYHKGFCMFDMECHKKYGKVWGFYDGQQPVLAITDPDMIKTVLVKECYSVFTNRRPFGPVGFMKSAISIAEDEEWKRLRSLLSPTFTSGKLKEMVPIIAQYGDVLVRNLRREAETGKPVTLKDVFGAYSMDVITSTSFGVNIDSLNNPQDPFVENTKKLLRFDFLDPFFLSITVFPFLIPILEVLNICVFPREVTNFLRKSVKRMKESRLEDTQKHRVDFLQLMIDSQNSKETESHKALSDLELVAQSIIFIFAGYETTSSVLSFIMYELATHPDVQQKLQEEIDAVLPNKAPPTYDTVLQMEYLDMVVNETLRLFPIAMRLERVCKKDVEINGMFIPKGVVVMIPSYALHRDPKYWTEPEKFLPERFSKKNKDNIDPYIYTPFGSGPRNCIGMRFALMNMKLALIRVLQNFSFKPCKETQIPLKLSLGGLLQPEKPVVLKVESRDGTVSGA
Sequence of 3A4 (P08684 whole entry): as above

As usually defined, the fraction unbound is the share of the substance not bound to proteins or other matrix. The low end stands for extensive binding, the high end for weak binding. Usually pEC50 stands for the negative decadic logarithm of the EC50, by convention in mol/L. A lower pEC50 goes with a high EC50. For `CC1(C(=O)N2CCC(O)(Cn3cnc4c(cc(Cl)n4-c4ccc5c(c4)CCO5)c3=O)CC2)CC1` [ADC-159, 6-Chloro-7-(2,3-dihydrobenzofuran-5-yl)-3-((4-hydroxy-1-(1-methylcyclopropane-1-carbonyl)piperidin-4-yl)methyl)-3,7-dihydro-4H-pyrrolo[2,3-d]pyrimidin-4-One], in data set [1], the “Hep CLhep (r)” value worked out at 43. In addition, the “LM CLhep (m)” value in [2] came to 55. Further, the pIC50 in data set [3] was < 4.70; in data set [13] (asterisk not explained, read-out: USP7 FP IC50 (value in brackets marked *)), 6.80; in data set [13] (read-out: USP7 FP IC50) it was 6.41; in data set [16], < 4.70; in data set [18], < 4.70. For the same molecule, the “LM CLhep (r)” value in [4] stood at 27. Moreover, the free fraction (fraction unbound) was determined as 0.15 in data set [5] and 0.12 in data set [8]. Further, the negative logarithm of the EC50 (pEC50) in data set [6] is 6.78; in data set [17], 7.03. Also, the “necrosis area at the tumour site” value in [7] (100 mg/kg, compared to vehicle) is recorded as “significant increase”. The tumour area entry in data set [7] (100 mg/kg, compared to vehicle) was “significant reduction”. In addition, the “tumour vessel formation (CD31/NG2 staining)” value in data set [7] (15 days of treatment) is reported as “prevents tumour vessel formation”. Besides, the TSol in data set [9] came out at 500 µM. For the same molecule, in data set [10] (A:B), the “MDCK A:B” value is listed as 0.2. The “MDCK B:A” value in data set [10] (B:A) amounted to 50.1. Moreover, the efflux ratio in data set [11] worked out at 276. Further, the oral availability entry in [12] was “improved oral availability”. For the same molecule, the “recruitment of cytotoxic lymphocytes into the tumour” value in data set [14] is “increases recruitment”. For the same molecule, in data set [15], the “LM CLhep (h)” value came to 9.
With `C[C@H](CC(=O)N1CCC(O)(Cn2cnc3c(-c4ccc(CN)cc4)n(C)nc3c2=O)CC1)c1ccccc1` [AD-04, (R)-3-(4-(Aminomethyl)phenyl)-6-((4-hydroxy-1-(3-phenylbutanoyl)piperidin-4-yl)methyl)-2-methyl-2H-pyrazolo[4,3-d]pyrimidin-7(6H)-one], in [19] (360 h), the tumour growth inhibition is reported as 53%. The “growth of CT26 xenografts (tumour volume)” value in data set [19] (dose-dependent manner) is “inhibited the growth”. In data set [19] (mouse, in vivo), the “tolerability, bodyweight of tumour-bearing mice” value was “no significant bodyweight loss; also recorded: well tolerated”. The “sensitivity of cancer cell lines” value in data set [20] (HT29 and H1299 (data not shown)) is recorded as “insensitive”; in [20] (LNCaP and MCF-7 (data not shown)) it was “sensitive”. The cell viability result in data set [20] (high concentration, normoxia and hypoxia, 72 hours) is reported as “do not affect cell viability”. Also, the “tumour VEGFA long isoform mRNA” value in data set [21] is “increase”. Besides, the “tumour VEGFA short isoform mRNA” value in data set [21] was “decrease”.
